Assay results as given in article PMC6874179, “Development of Macrocycle Kinase Inhibitors for ALK2 Using Fibrodysplasia Ossificans Progressiva‐Derived Endothelial Cells” (JBMR Plus, 2019).

Legend:
[1] = system: FOP ECFCs; assay: Osteogenic differentiation (mineralization) of FOP ECFCs; format: cell-based, human; details: osteogenic conditions, Alizarin Red; for Effect on activin A-induced osteogenic differentiation: activin A 50 ng/mL; for Effect on BMP-6-induced osteogenic differentiation: BMP-6 50 ng/mL
Method: For mineralization assays, 5 × 10^4 ECs were seeded into 48‐well plates and incubated in osteogenic medium containing 10^−8M/L dexamethasone, 0.2mM/L ascorbic acid, and 10mM/L β‐glycerolphosphate in the presence of BMP/ TGF‐β ligands for 28 days. The medium was refreshed every 4 days. Afterwards, cells were washed twice with PBS and fixed with 3.7% formaldehyde for 5 min. Next, cells were washed twice with distilled water; measurement of calcium deposition was performed by Alizarin Red solution (ARS) staining, as previously described.16 Precipitates, originated from three independent ARS assays, were dissolved using 10% cetylpyridinium chloride, and absorbance was measured at 570 nm. Representative pictures were obtained using a Leica DMIL LED microscope (Leica, Wetzlar, Germany) with 10× magnification.
(§1) Cells were incubated for 21 days in chondrogenic medium containing BMP‐6 or activin A (50 ng/mL) and LDN‐193189, OD36, or OD52 at 0.5μM, prior to Alcian Blue staining. (B) Quantification of Fig. 6 A by absorbance, after solubilization with guanidine hydrochloride. (C) Chondrogenic gene expression analysis of collagen 2 (Col2), Sox9, Matrix metalloproteinase 13 (Mmp13), and collagen X (Col X) in ATDC5 cells corresponding to (A). (D) Western blot of a representative clone of FOP endothelial colony‐forming cells (ECFCs) incubated with LDN‐193189, OD36, or OD52 (0.5μM) prior to stimulation with BMP‐6 (50 ng/mL) or activin A (50 ng/mL). (E) Expression of the BMP target genes ID1 and ID3 by qPCR in FOP ECFCs stimulated with BMP‐6 (50 ng/mL) or activin A (50 ng/mL) in the presence of the indicated compounds at 0.5μM. (F) Alizarin Red solution staining on a representative clone of FOP ECFCs incubated under osteogenic conditions with BMP‐6 (50 ng/mL) or activin A (50 ng/mL) and the indicated compounds. (G) Quantification of Fig. 6 F by absorbance, after solubilization with cetylpyridinium. (H) Osteogenic genes Collagen 1 alpha 1 (Col1a1), Runx2, and osterix (Osx) expression in a representative clone of FOP ECFCs incubated under osteogenic conditions with BMP‐6 (50 ng/mL) or activin A (50 ng/mL) and LDN‐193189, OD36, or OD52 (0.5 μM). *p < 0.05, **p < 0.01, ***p < 0.001.

[2] = Microsomal incubations, hLM; format: in vitro ADME; details: human, pooled liver microsomes, pH 7.4; microsomes 0.5 mg/ml, 0.5 μM compound; read-out: Metabolic clearance hLM
Method: Pooled human liver microsomes were purchased from Xenotech LLC (Kansas City, KS). Microsomes (0.5 mg/ml) were preincubated with 0.5 μM test compound for 7 min at 37°C in 50 mM phosphate buffer, pH 7.4. The reactions were initiated by adding prewarmed cofactor (0.44 mM NADPH). Aliquots of samples were taken at 0, 5, 10, 20 and 45 min and the reactions terminated by addition of cold acetonitrile containing an internal standard. Samples were centrifuged at 3000g for 10 min at 4°C and then supernatants were analyzed by LC/MS/MS for the amount of parent compound remaining.

[3] = system: FOP ECFCs; assay: Smad1/5 activation and ID-1/ID-3 expression in FOP ECFCs; format: cell-based, human; details: compound 0.5μM; for Effect on activin A-induced activation of Smad1/5 and gene targets ID-1 and ID-3: activin A 50 ng/mL; for Effect on BMP-6-induced downstream signaling: BMP-6 50 ng/mL
Method: Total RNA extraction was performed using NucleoSpin RNA II (Machery Nagel, Düren, Germany). There were 500 ng of RNA retro‐transcribed using RevertAid First Strand cDNA Synthesis Kits (Fisher Scientific, Landsmeer, The Netherlands), and real‐time reverse transcription‐PCR experiments were performed using SYBR Green (Bio‐Rad, Veenendaal, The Netherlands) and a Bio‐Rad CFX Connect device. A list of the oligonucleotides used can be found as online supplemental data.
as §1
(§2) Cells were seeded into 6-well plates and cultured till they reached confluence. Next, cells were stimulated as indicated and then washed with cold PBS. Lysates were prepared using 2x Sample buffer (10% SDS, 62.5 mM Tris-HCl pH 6.8, 0.002 % Bromophenol Blue, 0.7135 M (5%) β-mercaptoethanol, 10 % glycerol) and boiled for 5 minutes before loading. Electrophoresis was performed in 10% SDS/polyacrylamide gels. Separated proteins were transferred to nitrocellulose membranes (0.5 A at 100 V; in ice) for 1 hour. Blots were blocked in Tris-Buffered Saline solution containing 0.1% Tween 20 and 5% non-fat dry milk overnight at 4 °C, and immune-detection of specific proteins was carried out with primary antibodies (see above) followed by horseradish peroxidase-conjugated anti-mouse or anti-rabbit (GE Healthcare, Eindhoven, The Netherlands) secondary antibodies using an ECL system (Fisher Scientific, Landsmeer, The Netherlands).

[4] = system: p-Smad1/5 in 2H11 ECs; assay: Western blot of p-Smad1/5 in 2H11 endothelial cells; format: cell-based, mouse; details: 2H11 cells, compound 0.5μM; for Inhibition of BMP-6-induced p-Smad1/5: BMP-6 50 ng/mL; for Inhibition of BMP-9-induced p-Smad1/5: BMP-9 1 ng/mL
Method: Compounds were added for 16 hours at 0.5μM before luciferase activity was measured.
as §2, with “Lysates were prepared using 2x Sample buffer (10% SDS, 62.5 mM Tris-HCl pH 6.8, 0.002 % Bromophenol Blue, 0.7135 M (5%) β-mercaptoethanol, 10 % glycerol) and boiled for 5 minutes before loading.” left out

[5] = target: T1, CDK5_p35 (Homo sapiens, UniProt Q00535); assay: Proqinase Kinase profiling; format: biochemical; details: read-out: % inhibition at 100nM
T1 construct: purchased DiscoverX
T1 sequence (Q00535 whole entry): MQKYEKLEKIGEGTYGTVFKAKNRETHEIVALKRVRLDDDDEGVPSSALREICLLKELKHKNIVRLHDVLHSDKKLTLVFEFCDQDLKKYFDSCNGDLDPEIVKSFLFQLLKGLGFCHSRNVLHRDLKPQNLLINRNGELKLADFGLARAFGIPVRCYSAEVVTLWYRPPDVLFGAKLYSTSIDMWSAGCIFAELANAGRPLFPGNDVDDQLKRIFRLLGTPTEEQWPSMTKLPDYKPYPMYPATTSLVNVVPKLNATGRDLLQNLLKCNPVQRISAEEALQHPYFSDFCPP
T1 sequence (Q15078 whole entry partner): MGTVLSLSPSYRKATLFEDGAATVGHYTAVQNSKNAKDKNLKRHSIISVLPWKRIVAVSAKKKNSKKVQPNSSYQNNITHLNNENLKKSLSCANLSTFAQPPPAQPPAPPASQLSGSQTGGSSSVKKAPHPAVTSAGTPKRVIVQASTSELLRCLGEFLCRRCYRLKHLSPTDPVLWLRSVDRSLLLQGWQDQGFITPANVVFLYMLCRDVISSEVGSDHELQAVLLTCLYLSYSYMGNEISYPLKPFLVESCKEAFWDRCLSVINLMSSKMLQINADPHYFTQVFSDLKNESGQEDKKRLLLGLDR

[6] = target: T2, TSSK1B (Homo sapiens, UniProt Q9BXA7); assay: Proqinase Kinase profiling; format: biochemical; details: read-out: % inhibition at 100nM
T2 construct: purchased DiscoverX
T2 sequence (Q9BXA7 whole entry): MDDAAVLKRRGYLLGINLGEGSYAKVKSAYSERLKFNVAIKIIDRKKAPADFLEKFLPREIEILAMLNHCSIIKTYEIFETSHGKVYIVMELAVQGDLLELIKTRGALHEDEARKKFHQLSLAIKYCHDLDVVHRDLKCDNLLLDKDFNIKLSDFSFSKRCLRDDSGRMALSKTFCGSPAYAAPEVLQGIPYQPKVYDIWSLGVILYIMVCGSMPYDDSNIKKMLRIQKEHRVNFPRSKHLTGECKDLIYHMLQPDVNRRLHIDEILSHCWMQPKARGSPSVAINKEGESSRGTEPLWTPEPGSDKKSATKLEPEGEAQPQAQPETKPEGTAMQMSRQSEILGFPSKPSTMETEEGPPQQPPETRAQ

[7] = target: T3, EPHA7 (Homo sapiens, UniProt Q15375); assay: Proqinase Kinase profiling; format: biochemical; details: read-out: % inhibition at 100nM
T3 construct: purchased DiscoverX
T3 sequence (Q15375 28-998): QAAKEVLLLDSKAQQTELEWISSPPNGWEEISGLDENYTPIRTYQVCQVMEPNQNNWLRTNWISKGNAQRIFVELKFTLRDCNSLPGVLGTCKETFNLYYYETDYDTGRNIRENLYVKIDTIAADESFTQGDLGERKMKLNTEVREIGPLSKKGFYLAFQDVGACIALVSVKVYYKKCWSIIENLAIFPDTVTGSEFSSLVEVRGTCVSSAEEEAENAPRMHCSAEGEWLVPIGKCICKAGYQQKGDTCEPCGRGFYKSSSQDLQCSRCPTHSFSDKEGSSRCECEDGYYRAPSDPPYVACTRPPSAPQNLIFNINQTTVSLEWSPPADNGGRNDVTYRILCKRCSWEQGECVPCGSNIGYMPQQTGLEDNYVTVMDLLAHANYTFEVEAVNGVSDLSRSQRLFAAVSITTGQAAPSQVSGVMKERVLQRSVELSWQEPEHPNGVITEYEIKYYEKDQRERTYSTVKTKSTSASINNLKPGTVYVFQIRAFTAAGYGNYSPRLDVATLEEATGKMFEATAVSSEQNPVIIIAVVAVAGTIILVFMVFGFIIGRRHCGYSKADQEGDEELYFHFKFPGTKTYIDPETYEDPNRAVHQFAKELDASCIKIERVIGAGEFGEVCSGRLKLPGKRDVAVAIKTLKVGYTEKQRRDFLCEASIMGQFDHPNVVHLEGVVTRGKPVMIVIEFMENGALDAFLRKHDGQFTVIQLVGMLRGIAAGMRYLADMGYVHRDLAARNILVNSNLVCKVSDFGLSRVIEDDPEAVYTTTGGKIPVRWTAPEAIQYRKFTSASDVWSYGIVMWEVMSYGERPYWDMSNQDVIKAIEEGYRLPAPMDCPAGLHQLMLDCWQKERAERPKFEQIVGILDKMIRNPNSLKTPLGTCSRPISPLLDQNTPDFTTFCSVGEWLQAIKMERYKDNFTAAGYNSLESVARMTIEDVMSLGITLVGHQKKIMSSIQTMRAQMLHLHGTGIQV

[8] = target: T4, AURKB (Homo sapiens, UniProt Q96GD4); assay: Proqinase Kinase profiling; format: biochemical; details: read-out: % inhibition at 100nM
T4 construct: purchased DiscoverX
T4 sequence (Q96GD4 whole entry): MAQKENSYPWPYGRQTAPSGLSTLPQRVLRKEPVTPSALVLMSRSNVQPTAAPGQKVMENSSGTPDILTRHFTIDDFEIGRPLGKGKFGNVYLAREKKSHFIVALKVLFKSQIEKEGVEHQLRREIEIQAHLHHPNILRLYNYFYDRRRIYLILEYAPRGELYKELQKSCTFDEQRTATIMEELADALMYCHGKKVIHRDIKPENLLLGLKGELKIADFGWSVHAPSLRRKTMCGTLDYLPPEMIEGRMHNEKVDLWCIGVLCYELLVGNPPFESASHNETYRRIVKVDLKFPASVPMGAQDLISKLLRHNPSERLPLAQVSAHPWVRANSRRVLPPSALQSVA

[9] = system: panel of 366–468 kinases; assay: Kinase panel selectivity; format: biochemical; details: compound at 100nM
Text: Figure 4 ALK2 binding and kinase profile of OD36 and OD52.

[10] = target: T5, STK39 (Homo sapiens, UniProt Q9UEW8); assay: Proqinase Kinase profiling; format: biochemical; details: read-out: % inhibition at 100nM
T5 construct: purchased DiscoverX

[11] = target: T6, MAPKAPK5 (Homo sapiens, UniProt Q8IW41); assay: Proqinase Kinase profiling; format: biochemical; details: read-out: % inhibition at 100nM
T6 construct: purchased DiscoverX
T6 sequence (Q8IW41 whole entry): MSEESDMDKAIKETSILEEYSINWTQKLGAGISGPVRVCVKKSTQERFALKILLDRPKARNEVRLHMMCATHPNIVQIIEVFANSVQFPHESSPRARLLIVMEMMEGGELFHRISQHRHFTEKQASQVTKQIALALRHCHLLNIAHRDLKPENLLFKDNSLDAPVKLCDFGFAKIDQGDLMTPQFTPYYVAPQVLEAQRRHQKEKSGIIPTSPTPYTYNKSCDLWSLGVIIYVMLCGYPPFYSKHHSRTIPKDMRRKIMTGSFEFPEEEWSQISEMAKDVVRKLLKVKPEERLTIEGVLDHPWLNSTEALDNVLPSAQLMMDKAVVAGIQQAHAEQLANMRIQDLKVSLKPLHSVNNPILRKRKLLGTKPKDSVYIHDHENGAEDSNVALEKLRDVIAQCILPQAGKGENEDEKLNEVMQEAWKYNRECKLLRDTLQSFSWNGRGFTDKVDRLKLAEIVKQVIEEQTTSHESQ

In the case of `c1ccc2c(-c3cnn4cc(-c5ccc(N6CCNCC6)cc5)cnc34)ccnc2c1` [LDN-193189, reference compound], the “Effect on activin A-induced osteogenic differentiation” value [1] is reported as “inhibited”, the microsomal CLint at 0.5 μM [2] is reported as 61 µL/min/mg and the “Effect on activin A-induced activation of Smad1/5 and gene targets ID-1 and ID-3” value (“Effect on activin A-induced activation” below) [3] is reported as “inhibited”. The “Inhibition of BMP-6-induced p-Smad1/5” value [4] was “efficiently blocked” and the “Inhibition of BMP-9-induced p-Smad1/5” value [4] was “efficiently blocked”.
In the case of `Clc1cc2cc(c1)-c1cnn3ccc(nc13)NCCOCCO2` [OD36], the inhibition at 0.1 µM [5] is reported as 9%, the “Effect on BMP-6-induced osteogenic differentiation” value [1] is reported as “modest effect” and the “Effect on activin A-induced osteogenic differentiation” value [1] is reported as “efficiently blocked”. The microsomal CLint at 0.5 μM [2] was 59 µL/min/mg, the “Effect on BMP-6-induced downstream signaling” value [3] was “less effective” and the “Effect on activin A-induced activation” value [3] was “completely prevented”. The inhibition at 0.1 µM [6] was 9%, the inhibition at 0.1 µM [7] was 23% and the inhibition at 0.1 µM [8] was 16%. The “Selectivity: % of tested kinases inhibited over 50%” value [9] was 4.3%, the inhibition at 0.1 µM [10] was 0% and the “Inhibition of BMP-6-induced p-Smad1/5” value [4] was “only inhibited BMP‐9‐induced p‐Smad1/5”. The “Inhibition of BMP-9-induced p-Smad1/5” value [4] was “only inhibited BMP‐9‐induced p‐Smad1/5” and the inhibition at 0.1 µM [11] was 12%.
For `Cc1cc2cc(c1)-c1cnn3ccc(nc13)NCCNC(=O)CCN(C)C2` [OD52], the inhibition at 0.1 µM [5] was -8%, the “Effect on BMP-6-induced osteogenic differentiation” value [1] was “modest effect” and the “Effect on activin A-induced osteogenic differentiation” value [1] was “efficiently blocked”. For the same molecule, the microsomal CLint at 0.5 μM [2] was 72 µL/min/mg, the “Effect on BMP-6-induced downstream signaling” value [3] was “less effective” and the “Effect on activin A-induced activation” value [3] was “completely prevented”. It also gave an inhibition at 0.1 µM [6] of -5%, an inhibition at 0.1 µM [7] of -18% and an inhibition at 0.1 µM [8] of -4%. The “Selectivity: % of tested kinases inhibited over 50%” value [9] was 0.9%, the inhibition at 0.1 µM [10] was 5% and the “Inhibition of BMP-6-induced p-Smad1/5” value [4] was “only inhibited BMP‐9‐induced p‐Smad1/5”. The “Inhibition of BMP-9-induced p-Smad1/5” value [4] was “only inhibited BMP‐9‐induced p‐Smad1/5” and the inhibition at 0.1 µM [11] was 26%.
